According to ChEMBL document CHEMBL5532635, “The role of natural anti-parasitic guided development of synthetic drugs for leishmaniasis” (Eur J Med Chem, 2023):
Converted amounts (≈) assume the structure as drawn.

Legend:
Leishmania donovani [1] = test: Antileishmanial activity against Leishmania donovani promastigotes assessed as inhibition of parasite growth incubated for 4 hrs by MTT assay; format: functional, organism-based
Leishmania infantum [2] = test: Antileishmanial activity against Leishmania infantum assessed as reduction in parasite growth; format: functional, organism-based
Leishmania donovani [3] = test: Antileishmanial activity against Leishmania donovani amastigotes assessed as reduction in microbial growth; format: functional, organism-based
Leishmania amazonensis [4] = test: Antileishmanial activity against Leishmania amazonensis promastigotes assessed as reduction in parasite viability after 48 hrs by MTT assay; format: functional, organism-based
Leishmania amazonensis [5] = test: Antileishmanial activity against Leishmania amazonensis amastigotes assessed as reduction in parasite growth; format: functional, organism-based
Leishmania amazonensis [6] = test: Antileishmanial activity against Leishmania amazonensis promastigotes assessed as reduction in parasite viability after 72 hrs by CCK-8 assay; format: functional, organism-based
Leishmania infantum [7] = test: Antileishmanial activity against Leishmania infantum promastigote assessed as reduction in parasite growth after 72 hrs by MTT assay; format: functional, organism-based
Leishmania mexicana = test: Antileishmanial activity against Leishmania mexicana intracellular amastigotes infected in J774 macrophages assessed as reduction in parasite viability after 72 hrs by MTT based analysis; format: functional, organism-based; conditions: J774, 72 h
J774.A1 = test: Cytotoxicity against mouse J774.A1 cells assessed as reduction in cell viability incubated for 24 hrs by MTT assay; format: functional
Leishmania amazonensis [8] = test: Antileishmanial activity against Leishmania amazonensis MHOM/BR/1989/166MJO promastigotes assessed as reduction in […] growth; format: functional, organism-based
Leishmania amazonensis [9] = test: Antileishmanial activity against Leishmania amazonensis MHOM/BR/1989/166MJO promastigotes infected in mouse macrophage assessed as parasite growth inhibition measured after 72 hrs by MTT assay; format: functional, organism-based
Leishmania tropica [10] = test: Antileishmanial activity against Leishmania tropica promastigotes incubated for 24 hrs measured by alamar blue staining based fluorescence analysis; format: functional, organism-based
Leishmania tropica [11] = test: Antileishmanial activity against Leishmania tropica amastigotes incubated for 24 hrs measured by alamar blue staining based fluorescence analysis; format: functional, organism-based
Leishmania major [12] = test: Antileishmanial activity against Leishmania major IR-173 amastigotes assessed as parasite growth inhibition incubated for 72 hrs by resazurin dye based assay; format: functional, organism-based; conditions: IR-173, 72 h
Leishmania amazonensis [13] = test: Antileishmanial activity against Leishmania amazonensis promastigotes assessed as inhibition of parasite growth; format: functional, organism-based
Leishmania infantum [14] = test: Antileishmanial activity against Leishmania infantum MON-1 promastigotes assessed as reduction in parasite viability measured after 48 hrs by MTT assay; format: functional, organism-based; conditions: MON-1, 48 h
Leishmania infantum [15] = test: Antileishmanial activity against Leishmania infantum MHOM/MA/67/ITMAP263 promastigotes expressing red-shifted luciferase gene infected in mouse J774 cells incubated for 24 hrs by microplate luminometer analysis; format: functional, organism-based; conditions: MHOM/MA/67/ITMAP263, J774, 24 h
Leishmania donovani [16] = test: Antileishmanial activity against Leishmania donovani amastigotes assessed as parasite growth inhibition incubated for 72 hrs by MTS assay; format: functional, organism-based
Leishmania infantum [17] = test: Antileishmanial activity against Leishmania infantum MHOM/BR/70/BH46 promastigotes assessed as inhibition of parasite growth incubated for 72 hrs by Neubauer chamber based analysis; format: functional, organism-based; conditions: MHOM/BR/70/BH46, 72 h
Leishmania major [18] = test: Antileishmanial activity against Leishmania major amastigotes assessed as reduction in parasite growth incubated for 72 hrs by MTT assay; format: functional, organism-based
Leishmania major [19] = test: Antileishmanial activity against Leishmania major promastigotes assessed as reduction in parasite growth incubated for 72 hrs by MTT assay; format: functional, organism-based
Leishmania tropica [20] = test: Antileishmanial activity against Leishmania tropica promastigotes assessed as inhibition of parasite growth; format: functional, organism-based
Leishmania infantum [21] = test: Antileishmanial activity against Leishmania infantum amastigotes infected in human THP-1 cells assessed as reduction in parasite growth incubated for 72 hrs by high content imaging analysis; format: functional, organism-based; conditions: THP-1, 72 h
Leishmania donovani [22] = test: Antileishmanial activity against Leishmania donovani BHU575 promastigotes assessed as cell viability by MTT assay; format: functional, organism-based
Leishmania amazonensis [23] = test: Antileishmanial activity against Leishmania amazonensis promastigotes assessed as reduction in parasite viability measured after 48 hrs by alamar blue analysis; format: functional, organism-based
Leishmania amazonensis [24] = test: Antileishmanial activity against Leishmania amazonensis promastigotes assessed as inhibition of parasite growth at 10 uM relative to control; format: functional; set-up: scale not given: the % may be the effect or the level left
Leishmania amazonensis [25] = test: Antileishmanial activity against Leishmania amazonensis promastigotes infected in BALB/c mouse assessed as reduction of IgG1 level at 400 mg/kg per day, ip administered for 30 days measured at 10 week by ELISA assay; format: functional, organism-based
Leishmania major [26] = test: Antileishmanial activity against Leishmania major promastigote assessed as inhibition of parasite growth; format: functional, organism-based
Leishmania amazonensis [27] = test: Antileishmanial activity against Leishmania amazonensis promastigotes; format: functional, organism-based
Leishmania infantum [28] = test: Antileishmanial activity Leishmania infantum promastigotes assessed as reduction in parasite growth incubated for 72 hrs by alamar blue assay; format: functional, organism-based

O=c1c2ccccc2nc(/C=C/c2ccc([N+](=O)[O-])cc2)n1-c1ccccc1
IC50 (Leishmania donovani [1]): 0.021 µM

COc1ccc(Cn2c(C)cc(O)c(C(=O)Nc3ccc(C)cc3)c2=O)cc1
IC50 (Leishmania infantum [2]): 55 µM

NC(=S)N/N=C(/C=C/c1cccnc1)c1cccc(NC(=O)Nc2ccc(Cl)cc2)c1
IC50 (Leishmania donovani [3]): 3.81 µM

COC(=O)C1=CCC[C@@H]2[C@@](C)(CCc3ccco3)[C@H](C(=O)OC)CC[C@@]12C
IC50 (Leishmania amazonensis [4]): 0.027 µM

C=C[C@@H](c1cc(CC=C(C)C)ccc1O)c1cc(CC=C(C)C)c(OC)cc1O
IC50 (Leishmania amazonensis [5]): 1.13 µM
IC50 (Leishmania amazonensis [6]): 4.5 µM
IC50 (Leishmania infantum [7]): 5.2 µM

COc1cc(/C=C/C(=O)c2cccc([N+](=O)[O-])c2)ccc1OCC=C(C)C
IC50 (Leishmania mexicana): 4.57 µM

COc1cc(C(=O)/C=C/c2ccc([N+](=O)[O-])cc2)c(C(C)=O)c2c(OC)cccc12
CC50 (J774.A1): 373 µM
IC50 (Leishmania amazonensis [8]): 3.3 µM
IC50 (Leishmania amazonensis [9]): 18.5 µM

Nc1ccc(C(=O)N/N=C2\C(=O)N(CC(O)COc3cc(=O)oc4ccccc34)c3ccccc32)cc1 (stereo not drawn)
IC50 (Leishmania tropica [10]): 1.62 µM
IC50 (Leishmania tropica [11]): 2.85 µM

Cc1ccc2c(NCCCCCNC(=O)c3cccc(/C=C/C(=O)c4ccc(C)o4)c3)ccnc2c1
IC50 (Leishmania major [12]): 0.46 µM

COC(=O)C1=CCC[C@@H]2[C@@](C)(CCc3ccco3)[C@H](C(=O)O)CC[C@@]12C
IC50 (Leishmania amazonensis [13]): 0.11 µM

COc1cc(OC)c(C(=O)/C=C/c2cccc(C)c2)c([N+](=O)[O-])c1
IC50 (Leishmania infantum [14]): 74.1 µM
EC50 (Leishmania infantum [15]): 0.78 µM

C/C1=C\C(=O)OC(C(C)(C)C)CCCC(O)CCCC(O)CCCC(O)CCCC(O)CCCC(O)CCCC(O)CCCC(O)CCCCCC(O)C1 (stereo not drawn)
IC50 (Leishmania donovani [16]): 4.67 µM

Cc1cc(Br)cc2c(/C=N\NC(=S)Nc3ccccc3)c[nH]c12
IC50 (Leishmania infantum [17]): 5.6 µM

COc1cc2c(c(OC)c1OC)-c1ccc(OC)c(=O)cc1[C@@H](NC=O)CC2
IC50 (Leishmania major [18]): 10.2 µg/mL (≈ 26.5 µM)

COc1cc2c(c(OC)c1O)-c1ccc(OC)c(=O)cc1[C@@H](NC(C)=O)CC2 [2-DESMETHYLCOLCHICIN]
IC50 (Leishmania major [18]): 10.2 µg/mL (≈ 26.5 µM)
IC50 (Leishmania major [19]): 0.5 µg/mL (≈ 1.3 µM)

C[C@@H]1[C@H](O)[C@@H](C)/C=C/C=C/C=C/C=C/C=C/C=C/C=C/[C@H](O[C@@H]2O[C@H](C)[C@@H](O)[C@H](N)[C@@H]2O)C[C@@H]2O[C@](O)(C[C@@H](O)C[C@@H](O)[C@H](O)CC[C@@H](O)C[C@@H](O)CC(=O)O[C@H]1C)C[C@H](O)[C@H]2C(=O)O [AMPHOTERICIN B]
IC50 (Leishmania donovani [1]): 0.046 µM

CC1=CCC[C@H]2[C@](C)(Cc3cc(O)ccc3O)[C@@H](C)CC[C@]12C [AVAROL]
IC50 (Leishmania tropica [20]): 7.08 µM
IC50 (Leishmania infantum [21]): 3.19 µM
IC50 (Leishmania donovani [22]): 7.42 µM

CC1=CCC[C@H]2[C@](C)(CC3=CC(=O)C=CC3=O)[C@@H](C)CC[C@]12C [AVARONE]
IC50 (Leishmania tropica [20]): 20.3 µM
IC50 (Leishmania donovani [22]): 28.2 µM

COc1cc2c(c(OC)c1OC)-c1ccc(OC)c(=O)cc1[C@@H](NC(C)=O)CC2 [COLCHICINE]
IC50 (Leishmania major [18]): 10.2 µg/mL (≈ 25.5 µM)
IC50 (Leishmania major [19]): 0.5 µg/mL (≈ 1.25 µM)

COc1cc2c(c(OC)c1OC)-c1ccc(OC)c(=O)cc1[C@@H](NC(=O)CO)CC2 [COLCHIFOLINE]
IC50 (Leishmania major [18]): 14 µg/mL (≈ 33.7 µM)
IC50 (Leishmania major [19]): 0.7 µg/mL (≈ 1.68 µM)

CC[C@H]1C[C@@H]2CN3CCc4c([nH]c5ccccc45)[C@](C(=O)OC)(C2)[C@H]13 [CORONARIDINE]
IC50 (Leishmania amazonensis [23]): 12.5 µg/mL (≈ 36.9 µM)
Activity (Leishmania amazonensis [24]): 97%

CC[C@@H]1CN2CCc3c([nH]c4ccccc34)[C@@H]2C[C@@H]1/C(=C\OC)C(=O)OC [CORYNANRHEIDINE]
IC50 (Leishmania amazonensis [25]): 2.81 µM

CN[C@H]1CCc2cc(OC)c(OC)c(OC)c2-c2ccc(OC)c(=O)cc21 [DEMECOLCINE]
IC50 (Leishmania major [18]): 14.8 µg/mL (≈ 39.8 µM)
IC50 (Leishmania major [19]): 0.7 µg/mL (≈ 1.88 µM)

COc1c2ccoc2nc2c(OC)cccc12 [GAMMA-FAGARINE]
IC50 (Leishmania major [26]): > 74.2 µM

CC1(C)C=Cc2c(ccc3c2OCC2c4cc5c(cc4OC32)OCO5)O1 (stereo not drawn) [LEIOCARPIN]
IC50 (Leishmania amazonensis [27]): 7.1 µM
IC50 (Leishmania amazonensis [6]): 11.4 µM
IC50 (Leishmania infantum [7]): 15.5 µM

CCCCCCCCCCCCCCCCOP(=O)([O-])OCC[N+](C)(C)C [MILTEFOSINE]
IC50 (Leishmania donovani [1]): 3.19 µM

COc1cc2ccc(=O)oc2cc1OC [SCOPARONE]
EC50 (Leishmania infantum [28]): 5.2 µM
